Assay results: patent US11814367B2, “Inhibitors of glycogen synthase 1 (GYS1) and methods of use thereof” (Maze Therapeutics, Inc., priority 2021, dated 2023)

Assays:
[1] = target: hGYS1 enzyme (recombinant hGYS1/GN1 protein) (Homo sapiens (Human), UniProt P13807); experiment: GYS1 coupled enzyme assay (PK/LDH); type: biochemical; conditions: hGYS1/GN1 50 nM, UDP-Glucose 0.8 mM, G6P 1 mM; geometric mean of at least 2 runs
[2] = test system: hGYS1 enzyme / glycogen synthesis in HeLa cells; experiment: GYS1 cell based assay (glycogen synthesis, Glucose-glo); set-up: species or system human; conditions: Homo sapiens, HeLa, 24 h, 24 h incubation, 20 mM glucose, geometric mean of at least 2 runs
Outline: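 HeLa cells starved 24 h in medium containing only 1× Glutamax were plated onto compound in medium with 20 mM glucose (1% DMSO final) for 24 h, 37 °C, 5% CO2. Acid lysates were Tris-quenched, glucoamylase-digested (pH 5.3, 1 h, 37 °C) and read by Glucose-glo luminescence. IC50 came from Hill fits, as geometric mean of ≥2 runs.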

[3] = target: hGYS2 enzyme (recombinant hGYS2/GN1 protein) (Homo sapiens (Human), UniProt P54840); experiment: GYS2 coupled enzyme assay (PK/LDH); type: biochemical; conditions: geometric mean of at least 2 assay runs on separate days, read-out: Avg_IC50
Outline: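 IC50 came from Hill fits of duplicate percent inhibition, based on control-normalized slopes of 340 nm NADH decline read each minute for 10 min. The reaction held recombinant hGYS2/GN1 (200 nM) with glycogen, UDP-glucose, G6P and PEP, plus PK/LDH coupling at pH 7.5 and 2.5% DMSO.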

hGYS2 enzyme (recombinant hGYS2/GN1 protein), sequence (P54840 whole entry): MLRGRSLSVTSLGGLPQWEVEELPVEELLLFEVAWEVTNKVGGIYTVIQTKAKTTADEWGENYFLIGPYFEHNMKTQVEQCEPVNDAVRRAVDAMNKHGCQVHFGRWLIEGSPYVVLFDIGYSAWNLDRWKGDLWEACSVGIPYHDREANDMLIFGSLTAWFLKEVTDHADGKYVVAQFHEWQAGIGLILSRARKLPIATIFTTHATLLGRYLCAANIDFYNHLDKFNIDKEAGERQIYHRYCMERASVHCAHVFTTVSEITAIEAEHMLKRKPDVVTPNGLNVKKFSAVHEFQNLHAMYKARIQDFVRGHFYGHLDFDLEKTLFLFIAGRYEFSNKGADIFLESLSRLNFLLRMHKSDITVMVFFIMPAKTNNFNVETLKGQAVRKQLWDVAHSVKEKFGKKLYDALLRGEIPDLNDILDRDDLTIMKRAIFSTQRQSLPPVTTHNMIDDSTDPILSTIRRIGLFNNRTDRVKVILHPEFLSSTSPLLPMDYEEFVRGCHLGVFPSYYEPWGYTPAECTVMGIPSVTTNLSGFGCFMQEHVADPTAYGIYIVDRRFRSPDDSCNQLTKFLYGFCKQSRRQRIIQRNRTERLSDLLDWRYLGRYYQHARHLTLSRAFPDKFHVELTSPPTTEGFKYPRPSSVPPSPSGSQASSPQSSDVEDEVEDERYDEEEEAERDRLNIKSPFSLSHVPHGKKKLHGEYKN
hGYS2 enzyme (recombinant hGYS2/GN1 protein), sequence (P46976 whole entry partner): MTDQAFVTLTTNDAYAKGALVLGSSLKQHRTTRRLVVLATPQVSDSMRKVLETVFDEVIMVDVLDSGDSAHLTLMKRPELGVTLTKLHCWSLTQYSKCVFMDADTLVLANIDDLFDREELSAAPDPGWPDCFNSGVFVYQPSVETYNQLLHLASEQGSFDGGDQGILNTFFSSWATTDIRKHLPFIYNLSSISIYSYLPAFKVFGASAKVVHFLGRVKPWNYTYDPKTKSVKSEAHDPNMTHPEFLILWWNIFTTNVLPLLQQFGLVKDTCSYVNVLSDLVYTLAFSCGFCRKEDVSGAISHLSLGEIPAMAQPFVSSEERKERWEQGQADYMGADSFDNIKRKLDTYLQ
hGYS1 enzyme (recombinant hGYS1/GN1 protein), sequence (P13807 whole entry): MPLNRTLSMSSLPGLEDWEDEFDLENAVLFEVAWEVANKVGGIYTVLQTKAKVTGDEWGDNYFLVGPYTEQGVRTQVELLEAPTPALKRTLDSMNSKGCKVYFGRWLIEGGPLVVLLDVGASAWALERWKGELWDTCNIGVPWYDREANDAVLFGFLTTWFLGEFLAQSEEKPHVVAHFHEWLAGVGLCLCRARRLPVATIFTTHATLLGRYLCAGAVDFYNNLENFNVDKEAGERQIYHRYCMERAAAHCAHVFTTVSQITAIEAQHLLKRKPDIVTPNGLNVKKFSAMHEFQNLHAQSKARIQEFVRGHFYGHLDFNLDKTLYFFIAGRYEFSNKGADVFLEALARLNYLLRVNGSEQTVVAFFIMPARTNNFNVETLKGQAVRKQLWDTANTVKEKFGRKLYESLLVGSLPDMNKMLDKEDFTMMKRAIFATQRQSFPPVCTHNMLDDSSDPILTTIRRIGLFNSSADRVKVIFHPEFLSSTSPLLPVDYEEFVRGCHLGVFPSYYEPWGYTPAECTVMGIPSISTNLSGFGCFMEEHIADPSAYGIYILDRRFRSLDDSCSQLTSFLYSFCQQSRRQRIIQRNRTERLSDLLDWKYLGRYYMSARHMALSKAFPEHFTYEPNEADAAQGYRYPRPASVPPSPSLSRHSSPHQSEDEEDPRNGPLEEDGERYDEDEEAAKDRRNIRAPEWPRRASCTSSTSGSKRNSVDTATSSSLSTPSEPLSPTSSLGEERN
hGYS1 enzyme (recombinant hGYS1/GN1 protein), sequence (P46976 whole entry partner): as the sequence (P46976 whole entry partner) above

Row | SMILES | IC50 [1] [nM] | IC50 [2] [nM] | IC50 [3] [nM]
1 | CC(C)c1ccc([C@@H](NC(=O)[C@@H]2C[C@@H](F)CN2C(=O)Cc2ccn(C)n2)c2ccccc2)cc1 [Compound 49, (2S,4R)-4-fluoro-1-[2-(1-methyl-1H-pyrazol-3-yl)acetyl]-N-[(S)-phenyl[4-(propan-2-yl)phenyl]methyl]pyrrolidine-2-carboxamide] | 39 | 360 | > 100000
2 | CC(C)c1ccc([C@@H](NC(=O)[C@@H]2C[C@@H](F)CN2C(=O)Cn2cnc3ccccc32)c2ccccc2)cc1 [Compound 77, (2S,4R)-1-[2-(1H-1,3-benzodiazol-1-yl)acetyl]-4-fluoro-N-[(S)-phenyl[4-(propan-2-yl)phenyl]methyl]pyrrolidine-2-carboxamide] | 8 | 120 | > 100000
3 | Cc1cn(CC(=O)N2C[C@H](F)C[C@H]2C(=O)N[C@@H](c2ccccc2)c2ccc(C(C)C)cc2)c(=O)[nH]c1=O [Compound 126, (2S,4R)-4-fluoro-1-[2-(5-methyl-2,4-dioxo-1,2,3,4-tetrahydropyrimidin-1-yl)acetyl]-N-[(S)-phenyl[4-(propan-2-yl)phenyl]methyl]pyrrolidine-2-carboxamide] | 11 | 170 | > 100000
4 | Cc1nn(C)c(C)c1CC(=O)N1C[C@H](F)C[C@H]1C(=O)N[C@@H](c1ccccc1)c1ccc(C(C)C)cc1 [Compound 136, (2S,4R)-4-fluoro-N-[(S)-phenyl[4-(propan-2-yl)phenyl]methyl]-1-[2-(1,3,5-trimethyl-1H-pyrazol-4-yl)acetyl]pyrrolidine-2-carboxamide] | 9 | 170 | > 100000
5 | Cc1ccc2[nH]cc(CC(=O)N3C[C@H](F)C[C@H]3C(=O)N[C@@H](c3ccccc3)c3ccc(C(C)C)cc3)c2c1 [Compound 138, (2S,4R)-4-fluoro-1-[2-(5-methyl-1H-indol-3-yl)acetyl]-N-[(S)-phenyl[4-(propan-2-yl)phenyl]methyl]pyrrolidine-2-carboxamide] | 12 | 270 | > 100000
6 | CC(=O)N1C[C@H](C(=O)N2C[C@H](F)C[C@H]2C(=O)N[C@@H](c2ccccc2)c2ccc(C(C)C)cc2)[C@H]2OCC[C@H]21 [Compound 166, (2S,4R)-1-[(3aR,6S,6aR)-4-acetyl-hexahydro-2H-furo[3,2-b]pyrrole-6-carbonyl]-4-fluoro-N-[(S)-phenyl[4-(propan-2-yl)phenyl]methyl]pyrrolidine-2-carboxamide] | 56 | 780 | > 100000
7 | CC(=O)N1CCCC(C(=O)N2C[C@H](F)C[C@H]2C(=O)N[C@@H](c2ccccc2)c2ccc(C(C)C)cc2)C1C (stereo partly drawn) [Compound 178, (2S,4R)-1-(1-acetyl-2-methylpiperidine-3-carbonyl)-4-fluoro-N-[(S)-phenyl[4-(propan-2-yl)phenyl]methyl]pyrrolidine-2-carboxamide] | 38 | 410 | > 100000
8 | CC[C@@H]1CN(C(C)=O)C[C@@H]1C(=O)N1C[C@H](F)C[C@H]1C(=O)N[C@@H](c1ccccc1)c1ccc(C(C)C)cc1 [Compound 179, (2S,4R)-1-[(3R,4S)-1-acetyl-4-ethylpyrrolidine-3-carbonyl]-4-fluoro-N-[(S)-phenyl[4-(propan-2-yl)phenyl]methyl]pyrrolidine-2-carboxamide] | 31 | 400 | > 100000
9 | CC(=O)N1C[C@H]2CCC[C@@H](C(=O)N3C[C@H](F)C[C@H]3C(=O)N[C@@H](c3ccccc3)c3ccc(C(C)C)cc3)[C@H]2C1 [Compound 183, (2S,4R)-1-[(3aS,4R,7aS)-2-acetyl-octahydro-1H-isoindole-4-carbonyl]-4-fluoro-N-[(S)-phenyl[4-(propan-2-yl)phenyl]methyl]pyrrolidine-2-carboxamide] | 41 | 930 | > 100000
10 | CC(=O)N1CCC2(CCC(C(=O)N3C[C@H](F)C[C@H]3C(=O)N[C@@H](c3ccccc3)c3ccc(C(C)C)cc3)C2)CC1 (stereo partly drawn) [Compound 184, (2S,4R)-1-{8-acetyl-8-azaspiro[4.5]decane-2-carbonyl}-4-fluoro-N-[(S)-phenyl[4-(propan-2-yl)phenyl]methyl]pyrrolidine-2-carboxamide] | 75 | 3030 | > 100000
11 | CC(C)c1ccc([C@@H](NC(=O)[C@@H]2C[C@@H](F)CN2C(=O)CNc2ncco2)c2ccccc2)cc1 [Compound 198, (2S,4R)-4-fluoro-1-{2-[(1,3-oxazol-2-yl)amino]acetyl}-N-[(S)-phenyl[4-(propan-2-yl)phenyl]methyl]pyrrolidine-2-carboxamide] | 31 | 390 | > 100000
12 | CC(C)c1ccc([C@@H](NC(=O)[C@@H]2C[C@@H](F)CN2C(=O)Cn2cnnc2)c2ccccc2)cc1 [Compound 202, (2S,4R)-4-fluoro-N-[(S)-phenyl[4-(propan-2-yl)phenyl]methyl]-1-[2-(4H-1,2,4-triazol-4-yl)acetyl]pyrrolidine-2-carboxamide] | 71 | 1860 | > 100000
13 | CC(C)c1ccc([C@@H](NC(=O)[C@@H]2C[C@@H](F)CN2C(=O)CN2CCOCC2=O)c2ccccc2)cc1 [Compound 219, (2S,4R)-4-fluoro-1-[2-(3-oxomorpholin-4-yl)acethyl]-N-[(S)-phenyl[4-(propan-2-yl)phenyl]methyl]pyrrolidine-2-carboxamide] | 101 | 1410 | > 100000
14 | Cc1nn(CC(=O)N2C[C@H](F)C[C@H]2C(=O)N[C@@H](c2ccccc2)c2ccc(C(C)C)cc2)c(=O)o1 [Compound 236, (2S,4R)-4-fluoro-1-[2-(5-methyl-2-oxo-2,3-dihydro-1,3,4-oxadiazol-3-yl)acetyl]-N-[(S)-phenyl[4-(propan-2-yl)phenyl]methyl]pyrrolidine-2-carboxamide] | 58 | 810 | > 100000
15 | CC(=O)NCc1nnc(CC(=O)N2C[C@H](F)C[C@H]2C(=O)N[C@@H](c2ccccc2)c2ccc(C(C)C)cc2)o1 [Compound 239, (2S,4R)-1-{2-[5-(acetamidomethyl)-1,3,4-oxadiazol-2-yl]acetyl}-4-fluoro-N-[(S)-phenyl[4-(propan-2-yl)phenyl]methyl]pyrrolidine-2-carboxamide] | 67 | 1560 | > 100000
16 | CC(C)c1ccc([C@@H](NC(=O)[C@@H]2C[C@@H](F)CN2C(=O)Cn2nncc2CN)c2ccccc2)cc1 [Compound 240, (2S,4R)-1-{2-[5-(aminomethyl)-1H-1,2,3-triazol-1-yl]acetyl}-4-fluoro-N-[(S)-phenyl[4-(propan-2-yl)phenyl]methyl]pyrrolidine-2-carboxamide] | 60 | 2090 | > 100000
17 | CC(C)c1ccc([C@@H](NC(=O)[C@@H]2C[C@@H](F)CN2C(=O)Cn2nncc2CN(C)C)c2ccccc2)cc1 [Compound 241, (2S,4R)-1-(2-{5-[(dimethylamino)methyl]-1H-1,2,3-triazol-1-yl}acetyl)-4-fluoro-N-[(S)-phenyl[4-(propan-2-yl)phenyl]methyl]pyrrolidine-2-carboxamide] | 82 | 1140 | > 100000
18 | CC(C)c1ccc([C@@H](NC(=O)[C@@H]2C[C@@H](F)CN2C(=O)Cc2nnc(CN(C)C)o2)c2ccccc2)cc1 [Compound 242, (2S,4R)-1-(2-{5-[(dimethylamino)methyl]-1,3,4-oxadiazol-2-yl}acetyl)-4-fluoro-N-[(S)-phenyl[4-(propan-2-yl)phenyl]methyl]pyrrolidine-2-carboxamide] | 79 | 1140 | > 100000
19 | CC(=O)NCc1cnnn1CC(=O)N1C[C@H](F)C[C@H]1C(=O)N[C@@H](c1ccccc1)c1ccc(C(C)C)cc1 [Compound 243, (2S,4R)-1-{2-[5-(acetamidomethyl)-1H-1,2,3-triazol-1-yl]acetyl}-4-fluoro-N-[(S)-phenyl[4-(propan-2-yl)phenyl]methyl]pyrrolidine-2-carboxamide] | 86 | 2250 | > 100000
20 | CC(C)c1ccc([C@@H](NC(=O)[C@@H]2C[C@@H](F)CN2C(=O)Cc2cnn[nH]2)c2ccccc2)nc1 [Compound 244, (2S,4R)-1-(2-(1H-1,2,3-triazol-5-yl)acetyl)-4-fluoro-N-((S)-(5-isopropylpyridin-2-yl)(phenyl)methyl)pyrrolidine-2-carboxamide] | 77 | 1800 | > 100000
21 | Cc1n[nH]c(C)c1CC(=O)N1C[C@H](F)C[C@H]1C(=O)N[C@@H](c1ccccc1)c1ccc(C(C)C)cn1 [Compound 246, (2S,4R)-1-[2-(3,5-dimethyl-1H-pyrazol-4-yl)acetyl]-4-fluoro-N-[(S)-phenyl[5-(propan-2-yl)pyridin-2-yl]methyl]pyrrolidine-2-carboxamide] | 33 | 620 | > 100000
22 | CC(C)c1ccc([C@@H](NC(=O)[C@@H]2C[C@@H](F)CN2C(=O)Cc2cccc3ncccc23)c2ccccc2)nc1 [Compound 247, (2S,4R)-4-fluoro-N-[(S)-phenyl[5-(propan-2-yl)pyridin-2-yl]methyl]-1-[2-(quinolin-5-yl)acetyl]pyrrolidine-2-carboxamide] | 10 | 180 | > 100000
